Reference: the NIST ThermoML archive (doi:10.1016/j.fluid.2015.04.019)
± gives the expanded uncertainty stated by the source.

Conditions: 101.33 kPa, Liquid, Vibrating tube method

| SMILES | mass density (293.15 K) [kg/m3] | mass density (313.15 K) [kg/m3] |
| --- | --- | --- |
| CCCCOCCO [2-butoxyethan-1-ol] | 900.64 ± 0.15 | 883.8 ± 0.15 |
| CCCCCCCC [octane] | 702.64 ± 0.32 | 686.39 ± 0.32 |
